These results are taken from patent US20260374782A1, “NEW COMPOUNDS, PROCESSES FOR PREPARING THE SAME AND THEIR USE AS DRUGS” (B&A ONCOMEDICAL, priority 2022, published 2026).

In this test the target is T1, NKCC1 (Homo sapiens, UniProt P55011).
T1 construct: endogenous in cells; host or cells: native HEK293 cells
T1 sequence (P55011 1-1212): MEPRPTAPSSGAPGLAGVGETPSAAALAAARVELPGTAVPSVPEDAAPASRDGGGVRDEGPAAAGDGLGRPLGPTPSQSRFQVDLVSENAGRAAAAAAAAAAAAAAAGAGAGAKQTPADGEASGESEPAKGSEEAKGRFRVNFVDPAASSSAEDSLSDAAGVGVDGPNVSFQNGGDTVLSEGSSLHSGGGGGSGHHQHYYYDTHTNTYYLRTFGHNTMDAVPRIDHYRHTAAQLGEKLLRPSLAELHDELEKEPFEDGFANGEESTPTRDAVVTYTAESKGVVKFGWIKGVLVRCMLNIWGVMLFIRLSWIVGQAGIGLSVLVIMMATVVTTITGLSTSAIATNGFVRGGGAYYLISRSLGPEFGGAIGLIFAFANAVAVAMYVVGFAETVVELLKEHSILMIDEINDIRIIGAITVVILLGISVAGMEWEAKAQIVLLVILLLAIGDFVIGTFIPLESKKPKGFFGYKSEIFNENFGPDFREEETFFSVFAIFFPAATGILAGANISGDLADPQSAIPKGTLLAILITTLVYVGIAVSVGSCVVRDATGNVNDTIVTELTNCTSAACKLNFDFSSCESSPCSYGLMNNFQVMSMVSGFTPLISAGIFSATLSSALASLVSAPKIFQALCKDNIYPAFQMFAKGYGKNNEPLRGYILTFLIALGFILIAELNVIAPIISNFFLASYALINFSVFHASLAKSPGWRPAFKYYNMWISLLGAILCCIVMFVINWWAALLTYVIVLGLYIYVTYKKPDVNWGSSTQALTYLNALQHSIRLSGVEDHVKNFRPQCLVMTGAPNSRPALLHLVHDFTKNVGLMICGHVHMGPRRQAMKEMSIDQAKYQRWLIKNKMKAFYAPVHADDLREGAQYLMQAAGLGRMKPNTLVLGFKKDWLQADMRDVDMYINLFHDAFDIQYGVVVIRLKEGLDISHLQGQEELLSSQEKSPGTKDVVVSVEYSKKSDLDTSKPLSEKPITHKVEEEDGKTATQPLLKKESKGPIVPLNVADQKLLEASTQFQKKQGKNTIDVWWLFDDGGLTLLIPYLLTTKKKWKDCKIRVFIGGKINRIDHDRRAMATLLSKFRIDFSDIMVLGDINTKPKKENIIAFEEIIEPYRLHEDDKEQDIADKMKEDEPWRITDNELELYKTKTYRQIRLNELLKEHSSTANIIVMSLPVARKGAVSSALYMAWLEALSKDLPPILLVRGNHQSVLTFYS
Briefly: NKCC1-mediated K+ influx (83Rb tracer uptake) in native HEK293 cells, hypertonic saline, 100 μM ouabain. It is filed as cell-based. To be noted: HEK293, no drug = 1000, 20 μM bumetanide = 0; for inhibition at 2 µM: read-out: NKCC1 mediated flux inhibition at 2 μM (%); for inhibition at 20 µM: read-out: NKCC1 mediated flux inhibition at 20 μM (%). Put shortly: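 Native cells in slightly hypertonic saline with 100 μM ouabain; 15 min preincubation then 15 min 83Rb uptake (0.25 μCi/mL), scintillation counting normalized to protein. Compounds at 2 μM and 20 μM; flux scaled 1000 (no drug) to 0 (20 μM bumetanide), triplicate dishes.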

Usually inhibition stands for the share of the control response that was lost under treatment. `CCCCNc1cc(C(=O)O)cc(S(=N)(=O)NC)c1Oc1ccccc1` (stereo not shown) [Compound 51, 3-(butylamino)-5-(methylaminosulfonimidoyl)-4-phenoxy-benzoic acid]: the inhibition at 2 µM lay in the range of 50 to 75% and the inhibition at 20 µM is not below 75%.

For `CCCCNc1cc(C(=O)O)cc(S(=N)(=O)Nc2ccccc2)c1Oc1ccccc1` (stereo not shown) [Compound 57, 3-(anilinosulfonimidoyl)-5-(butylamino)-4-phenoxy-benzoic acid], the inhibition at 2 µM lay in the range of 50 to 75% and the inhibition at 20 µM is not below 75%.
